From patent publication US20210254000A1, “PROCESS FOR PRODUCING A T CELL COMPOSITION” (Juno Therapeutics, Inc., priority 2017, published 2021)
pIC50: −log10 of the molar value. Like-named read-outs stand apart in the source and are kept apart here.

Tests used:
[1] = system: CD8+ and CD4+ T cells of anti-CD19 CAR-T cell compositions; assay: Intracellular polyfunctional cytokine profiles; format: cell-based, human; details: cells expanded with 200 nM PI-103 or 1 μM Compound 63; PMA/Ionomycin + Golgi Inhibitor or Golgi Inhibitor alone, 5 hours
Experimental: Separate compositions of CD4+ and CD8+ cells were isolated from three human donors, activated and transduced with a viral vector encoding an anti-CD19 CAR substantially as described in Example 2. After transduction, the CD4+ and CD8+ T cells derived from each donor were separately incubated for 8 days in the presence of a mTOR kinase inhibitor to expand T cells substantially as described in Example 2, except in the presence of 200 nM PI-103, 1 μM Compound 63, or with DMSO vehicle or media only controls. CD4+ and CD8+ T cells from each donor were then separately harvested, formulated, and cryofrozen. The cryofrozen engineered CD4+ and CD8+ T cells were thawed, washed to remove compound, and cells from the same donor were then combined at a ratio of 1:1 viable CD4+/CAR+ to viable CD8+/CAR+ T cells to produce an expanded anti-CD19 CAR-T cell composition containing CD4+ and CD8+ T cells. Functional activities of the generated anti-CD19 CAR-T cell compositions were assessed.
Intracellular cytokines, CD107a, IFN-gamma ([…]), IL-2, IL-17a, and TNF-alpha (TNFα), were assessed in co-cultured T cells that were split into two groups and further incubated for 5 hours with PMA/Ionomycin and a Golgi Inhibitor or a Golgi Inhibitor alone. The intracellular cytokine accumulation was expressed as a fold change in frequency of cytokine positive cells from media-only controls. […]

[2] = system: anti-CD19 CAR+ T cells; assay: Chronic stimulation assay with anti-ID conjugated beads (14 days); format: cell-based, human; details: inhibitor present from initiation of stimulation; for primary or secondary cytolytic response: 3:1 effector:target cell ratio; for primary or secondary responses: ability of CAR-T cell compositions to produce cytokines: at thaw or after 14 day anti-ID bead stimulation, K562-CD19 1:1
Text: Separate compositions of CD4+ and CD8+ cells were isolated from human donors, stimulated by activation with anti-CD3/anti-CD28 magnetic beads and transduced with a viral vector encoding an anti-CD19 CAR having an scFv derived from FMC63. Following cultivation under conditions to expand the cells, T cell compositions containing engineered CD4+ and CD8+ T cells from each donor were then separately harvested, formulated, and cryofrozen. The cryofrozen engineered CD4+ and CD8+ T cells were thawed and formulated at a 1:1 ratio of CD4+ and CD8+ T cells from the same donor to generate a T cell composition containing CAR+ T cells. Anti-idiotype (ID) antibody conjugated beads against the anti-CD19 CAR were incubated with cells at a 1:1 bead:cell ratio for 14 days.
Secondary response of CAR-T cells harvested at day 14 following CAR-specific stimulation with anti-ID conjugated beads (Day 14; secondary) was assessed after stimulation with K562-CD19 antigen-expressing target cells at an effector to target ratio of 1:1 (to assess cytokine levels) or 3:1 (to assess cytolytic activity). The primary response of T cells from the T cell composition that had not been incubated with the anti-ID conjugated beads also was determined by similar stimulation with antigen-expressing cells (Day 0; “primary”). To assess cytolytic activity, the target cells were labeled with NucLight Red (NLR) to permit tracking by fluorescent microscopy. Killing activity was assessed by measuring the loss of viable target cells over 72 hours, as determined by loss of fluorescent signal over time by kinetic fluorescence microscopy (using the INCUCYTE® Live Cell Analysis System, Essen Bioscience). Killing index was determined as the inverse of the area under the curve (AUC) for target fluorescence over time. Intracellular cytokine levels of IL-2 and TNF-alpha were assessed by flow cytometry in co-cultured T cells after incubation in the presence of a Golgi Inhibitor. […]
Primary response of CAR-T cell compositions at thaw (no stimulation with anti-ID conjugated beads) or secondary response of CAR-stimulated CAR-T compositions (following 14 day CAR-specific stimulation with anti-ID conjugated beads) was assessed after stimulation with antigen-expressing cells. CAR-T cell compositions were cultured 1:1 with K562-CD19 antigen-expressing cells in the presence of a Golgi Inhibitor, and polyfunctional cytokine production was assessed by flow cytometry following intracellular cytokine staining for IL-2, IFN-gamma and TNF-alpha. A polyfunctional score was determined from cumulative levels of cytokines as determined in CD8+ cells after the data were normalized by scaling within donor cohorts (FIG. 13A). […]

[3] = system: Ribo-S6 phosphorylation; assay: Inhibition of ribosomal protein S6 phosphorylation in stimulated primary human T cells (flow cytometry); format: cell-based
Experimental: The dose effect of exemplary mTOR kinase inhibitors in primary human T cells was assessed by monitoring inhibition of ribosomal protein S6.
CD4+ and CD8+ T cells were isolated by immunoaffinity-based enrichment from leukapheresis samples from human donor subjects. Isolated CD4+ and CD8+ T cells were mixed 1:1 and stimulated with anti-CD3/anti-CD28 magnetic beads in the presence of increasing concentrations of an mTOR kinase inhibitor, PI-103, Compound 155, Compound 63, or Compound 246. The T cell cultures were incubated overnight (approximately 16 hr) at 37° C. Following incubation in the presence of PI-103, Compound 155, Compound 63, or Compound 246, T cells were assessed for intracellular S6 phosphorylation and co-stained for surface expression of CD4 or CD8, by flow cytometry.

[4] = Homo sapiens, T-cell, CD8+ T cells, read-out: IC50 for inhibition of Ribo-S6 phosphorylation, CD8
[5] = Homo sapiens, CD4+ T cells, read-out: IC50 for inhibition of Ribo-S6 phosphorylation, CD4
[6] = T-cell, primary human CD4+/CD8+ T cells mixed 1:1, anti-CD3/anti-CD28 beads, approximately 16 hr, read-out: IC50 for the inhibition of S6 phosphorylation in the T cells

Row | Compound | frequency of polyfunctional cytokine profiles in CD8+ and CD4+ T cells vs control cells [1] | primary or secondary cytolytic response [2] | primary or secondary responses: ability of CAR-T cell compositions to produce cytokines [2] | pIC50 [3, 4] | pIC50 [3, 5] | pIC50 [3, 6]
1 | CC(C)c1ccccc1-n1c(=O)[nH]c2c(C(N)=O)nc(-c3cccc(O)c3)nc21 [Compound 63, 2-(3-Hydroxyphenyl)-9-(2-isopropylphenyl)-8-oxo-8,9-dihydro-7H-purine-6-carboxamide] | increased frequency of certain polyfunctional cytokine profiles | Improvements in primary or secondary cytolytic response | improved primary or secondary responses | 6.30 | 6.33 | ~6.30
2 | Oc1cccc(-c2nc(N3CCOCC3)c3oc4ncccc4c3n2)c1 [PI-103, reference compound] | increased frequency of certain polyfunctional cytokine profiles | Improvements in primary or secondary cytolytic response | improved primary or secondary responses | 7.05 | 6.92 | ~7.00
